According to patent US20040267001A1, “Genes encoding baeyer-villiger monooxygenases” (priority 2001, published 2004):

Legend:
Assay in all cases: chnB monooxygenase activity assay, NADPH oxidation at 340 nm, purified over-expressed enzyme
Type in all cases: biochemical
[1] = system: Rhodococcus sp. phi1 chnB monooxygenase; details: 1.25 mM substrate, pH 7.5; ND = No Activity Detected
Source text: (§1) Following amplification, the chnB gene fragments were cloned into pTrcHis-TOPO TA vectors with either an N-terminal tail or C-terminal tail, as provided by the vector sequence (N-terminal tail for Brevibacterium sp. HCU, Rhodococcus sp. phi1, Rhodococcus sp. phi2, and Arthrobacter sp. BP2 monooxygenases; C-terminal tail for Acinetobacter sp. SE19 and Acidovorax sp. CHX monooxygenases). These vectors were transformed into E. coli, with transformants grown in Luria-Bertani broth supplemented with ampicillin (100 ug/ml) and riboflavin (0.1 ug/ml) at 30° C. until the absorbance at 600 nm (A600) reached 0.5. When the A600 was reached, the temperature was shifted to 16° C.
(§2) The encoded monooxygenase sequences were expressed upon addition of IPTG to the culture media, 30 min after the temperature shift to 16° C. The cultures were grown further ovemight (14 hrs) and harvested by centrifugation in a cold centrifuge. The cells were treated with lysozyme (100 mg/ml) for 30 min on ice and sonicated. Following sonication, cell extracts were centrifuged and the supernatant was equilibrated with Ni-NTA resin (Qiagen, Valencia, Calif.) for 1 hr at 4° C. Protein bound resin was washed successively with increasing concentrations of imidazole buffer until the protein of interest was released from the resin. The purified protein was concentrated and the buffer exchanged to remove the imidazole. The protein concentration was adjusted to 1 ug/ml.
(§3) Compounds were selected on the basis of previous observations by van der Werf (J. Biochem. 347:693-701 (2000)) and Miyamoto et al. (Biochimica et Biophysica Acta 1251: 115-124 (1995)) and by searches for the ketone substructure.
(§4) All compounds were obtained from Sigma-Aldrich with only two exceptions. Levoglucosenone was obtained from Toronto Research Chemicals, Inc. and dimethyl-2-piperidone was prepared according to U.S. Pat. No. 6,077,955. For enzyme assays all compounds were dissolved to a concentration of 0.1 M in methanol, with the exceptions of norcamphor (dissolved in ethyl acetate), cyclododecanone, cycltridecanone and cyclopentadecanone (dissolved in propanol), and levoglucosenone (dissolved with acetone).
(§5) The monooxygenase activity of each over-expressed enzyme was assayed spectrophotometrically at 340 nm by monitoring the oxidation of NADPH. Assays were performed in individual quartz cuvettes, with a pathlength of 1 cm. […] An Ultrospec 4000 (Pharmacia Biotech, Cambridge, England) was used to read the absorbance of the samples over a two to ten minute time period and the SWIFT (Pharmacia Biotech) program was used to calculate the slope of the reduction in absorbance over time. For the Brevibactedum sp. […] Monooxygenase activity of each over-expressed enzyme is shown in Table 5, with respect to each ketone substrate. The specific activity values listed are given in umol/min/mg. The notation “ND” refers to “No Activity Detected”.

[2] = system: Brevibacterium sp. HCU chnB2 monooxygenase; details: 1.25 mM substrate, pH 7.5; rates multiplied by a factor of 3.25 to adjust for decrease in activity due to storage; ND = No Activity Detected
Source text: as §1, §2, §3, §4, §5

[3] = system: Brevibacterium sp. HCU chnB1 monooxygenase; details: 1.25 mM substrate, pH 7.5; ND = No Activity Detected
Source text: as §1, §2, §3, §4, §5

[4] = system: Arthrobacter sp. BP2 chnB monooxygenase; details: 1.25 mM substrate, pH 7.5; ND = No Activity Detected
Source text: as §1, §2, §3, §4, §5

[5] = system: Acidovorax sp. CHX chnB monooxygenase; details: 1.25 mM substrate, pH 7.5; ND = No Activity Detected
Source text: as §1, §2, §3, §4, §5

[6] = target: T1, Acinetobacter sp. SE19 chnB monooxygenase (Acinetobacter sp., UniProt Q9F7E4); details: 1.25 mM substrate, pH 7.5; ND = No Activity Detected
T1 construct: isolated full length BVMO genes from Brevibacterium sp; HCU, Acinetobacter SE19; C-terminal tail provided by the pTrcHis-TOPO vector (C); made in house; host or cells: E. coli
Source text: as §1, §2, §3, §4, §5

[7] = system: Rhodococcus sp. phi2 chnB monooxygenase; details: 1.25 mM substrate, pH 7.5; ND = No Activity Detected
Source text: as §1, §2, §3, §4, §5

Molecule | Specific Activity of Monooxygenase Enzymes Against Various Ketone Substrates, sp. phi1 chnB [1] | Specific Activity of Monooxygenase Enzymes Against Various Ketone Substrates, sp. HCU chnB2 [2] | Specific Activity of Monooxygenase Enzymes Against Various Ketone Substrates, sp. HCU chnB1 [3] | Specific Activity of Monooxygenase Enzymes Against Various Ketone Substrates, sp. BP2 chnB [4] | Specific Activity of Monooxygenase Enzymes Against Various Ketone Substrates, sp. CHX chnB [5] | Specific Activity of Monooxygenase Enzymes Against Various Ketone Substrates, sp. SE19 chnB [6] | Specific Activity of Monooxygenase Enzymes Against Various Ketone Substrates, sp. phi2 chnB [7]
O=C1CCCCCC1 [Cycloheptanone] | 3.622 µmol/min/mg | 0.374 µmol/min/mg | 0.646 µmol/min/mg | 3.846 µmol/min/mg | 0.608 µmol/min/mg | 8.422 µmol/min/mg | 6.234 µmol/min/mg
CC(=O)/C=C/C1=C(C)CCCC1(C)C [beta-ionone] | 2.707 µmol/min/mg | 0.374 µmol/min/mg | 0.109 µmol/min/mg | 1.485 µmol/min/mg | 0.544 µmol/min/mg | 3.347 µmol/min/mg | 0.544 µmol/min/mg
dimethy-2-piperidone | 3.539 µmol/min/mg | 0.354 µmol/min/mg | 2.822 µmol/min/mg | 4.154 µmol/min/mg | 0.557 µmol/min/mg | 8.384 µmol/min/mg | 6.509 µmol/min/mg
O=C1CCCCC1 [Cyclohexanone] | 3.680 µmol/min/mg | 1.726 µmol/min/mg | 2.765 µmol/min/mg | 3.565 µmol/min/mg | 0.397 µmol/min/mg | 6.349 µmol/min/mg | 3.750 µmol/min/mg
O=C1CCC(=O)CC1 [1,4-cyclohexanedione] | 3.302 µmol/min/mg | 1.123 µmol/min/mg | 3.405 µmol/min/mg | 3.994 µmol/min/mg | 0.794 µmol/min/mg | 8.346 µmol/min/mg | 6.150 µmol/min/mg
O=C1Cc2ccccc2N1 [Oxindole] | 3.411 µmol/min/mg | 0.229 µmol/min/mg | 2.438 µmol/min/mg | 4.845 µmol/min/mg | 0.307 µmol/min/mg | 7.091 µmol/min/mg | 4.858 µmol/min/mg
O=C1CC2CC[C@H]1C2 [Norcamphor] | 1.504 µmol/min/mg | 1.331 µmol/min/mg | 0.410 µmol/min/mg | 2.842 µmol/min/mg | 0.166 µmol/min/mg | 4.474 µmol/min/mg | 2.816 µmol/min/mg
O=C1C=CCCC1 [Cyclohex-2-ene-1-one] | 2.694 µmol/min/mg | 0.541 µmol/min/mg | 0.435 µmol/min/mg | 2.739 µmol/min/mg | 0.666 µmol/min/mg | 5.357 µmol/min/mg | 3.091 µmol/min/mg
CC1CCCCC1=O (stereo not shown) [2-methyl-cyclohexanone] | 4.774 µmol/min/mg | 1.622 µmol/min/mg | 2.714 µmol/min/mg | 4.205 µmol/min/mg | 0.627 µmol/min/mg | 9.990 µmol/min/mg | 5.952 µmol/min/mg
CC1CCCC1=O (stereo not shown) [2-methyl-cyclopentanone] | 3.392 µmol/min/mg | 0.874 µmol/min/mg | 1.395 µmol/min/mg | 3.514 µmol/min/mg | 0.627 µmol/min/mg | 8.378 µmol/min/mg | 6.445 µmol/min/mg
